For 18 compounds, IC50 results are on record in US20260327243A1, “SPIRO-HETEROCYCLIC INHIBITORS OF KRAS G12C MUTANT PROTEINS AND USES THEREOF” (AMGEN INC., priority 2023, published 2026).

Assay [1] addresses KRAS^G12C (Homo sapiens, UniProt P01116, C118A/G12C). Put plainly: Coupled Nucleotide Exchange Assay. It counts as biochemical. The conditions noted are these: GDP-bound KRAS (aa 1-169) G12C/C118A; 2 h compound pre-incubation; SOS-mediated exchange, 30 min; cRAF binding (AlphaLISA). In outline: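 GDP-bound His-tagged KRAS aa 1-169 (G12C/C118A) pre-incubated 2 h with compound in 25 mM HEPES pH 7.4, 10 mM MgCl2, 0.01% Triton X-100 (±0.1% BSA), then SOS (aa 564-1049) plus GTP added for 30 min. GST-cRAF RBD binding read by AlphaLISA; DMSO-normalized, 4-parameter fit gives IC50.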
In general terms: Bead proximity is the source of the signal in Alpha formats.

Assay [2] concerns A549 cells. The assay is described as follows: Cell Viability Assay, A549. The conditions noted are these: human lung carcinoma, 72 h, CellTiter-Glo. In kind it is cell-based. The protocol:
(§1) MIA PaCa-2 (human pancreatic carcinoma; ATCC CRL-1420) or A549 (human lung carcinoma; ATCC CCL-185) cells were cultured in RPMI 1640 medium containing 10% fetal bovine serum and 1×penicillin/streptomycin/L-glutamine. Cells were seeded in 384-well plates at a density of 1.67E+04 cells/mL and incubated at 37° C., 5% CO2, overnight. Serially-diluted compound or DMSO was added to the cells, and plates were incubated at 37° C., 5% CO2 for 72 h. Cell viability was measured using a CellTiter-Glo® Luminescent Cell Viability Assay kit (Promega) according to the manufacturer's protocol. The luminescence signal of treated samples was normalized to DMSO control, and data were analyzed using a 4-parameter logistic model to calculate IC50 values.
(§2) The following data (Table 3) categorizes the IC50 of each compound for inhibiting enzymatic activity of KRAS^G12C in the indicated cells.
For orientation: In ATP-based viability assays light output follows the ATP content of the culture.

For assay [3], the system named is MIA PaCa-2 cells. The assay is described as follows: Cell Viability Assay, MIA PaCa-2. In kind it is cell-based. To be noted: human pancreatic carcinoma, CellTiter-Glo. The protocol: as §1, §2

Some results are limits rather than exact numbers.

KRAS^G12C, sequence (P01116 1-169 isoform P01116-2 G12C/C118A): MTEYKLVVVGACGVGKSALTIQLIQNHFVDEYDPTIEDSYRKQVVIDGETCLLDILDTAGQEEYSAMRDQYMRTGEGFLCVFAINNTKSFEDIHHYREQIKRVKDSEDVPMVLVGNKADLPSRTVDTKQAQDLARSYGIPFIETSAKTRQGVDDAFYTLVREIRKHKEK

Usually IC50 stands for the concentration that inhibits the measured activity by half. Consider `C=CC(=O)N1CCN([C@@H]2CN(c3cc(N4CCC5(C[C@H]4C)OCC=C5C)nc(C(F)(F)F)n3)[C@@H]2C)CC1` (stereo partly drawn) [Compound 3-005, 1-(4-((2R,3R)-1-(6-(4.7-dimethyl-1-oxa-8-azaspiro[4.5]dec-3-en-8-yl)-2-(trifluoromethyl)pyr-imidin-4-yl)-2-methylazetidin-3-yl)piperazin-1-yl)prop-2-en-1-one], for which the IC50 is 184 nM in assay [1]; > 5000 nM in assay [2] (A549); 626 nM in assay [3] (Homo sapiens, MIA PaCa-2, 72 h).
For `C=CC(=O)N1CCN([C@@H]2CN(c3cc(N4CCC5(CC4)OCCC=C5C)nc(C(F)(F)F)n3)[C@@H]2C)CC1` [Compound 3-008, 1-(4-((2R.3R)-2-methyl-1-(6-(5-methyl-1-oxa-9-azaspiro[5.5]undec-4-en-9-yl)-2-(trifluorometh-yl)pyrimidin-4-yl)azetidin-3-yl)-piperazin-1-yl)prop-2-en-1-one], the half-inhibitory concentration (IC50) in assay [1] stood at 275 nM; in assay [3] (Homo sapiens, MIA PaCa-2, 72 h) it was 625 nM.
Regarding `C=CC(=O)N1CCN(C2CN(c3cc(N4CCC5(CCC(=O)N5)CC4)nc(C(F)(F)F)c3C#N)C2)CC1` [Compound 3-016], the IC50 is 969 nM in assay [1]; > 5000 nM in assay [2] (A549); > 5000 nM in assay [3] (Homo sapiens, MIA PaCa-2, 72 h).
Regarding `C=CC(=O)N1CCN(C2CN(c3cc(N4CCC5(CCC(=O)N5C)CC4)nc(C(F)(F)F)c3C#N)C2)CC1` [Compound 3-075, 4-(3-(4-Acryloylpiperazin-1-yl)azetidin-1-yl)-6-(1-methyl-2-oxo-1,8-diazaspiro[4.5]decan-8-yl)-2-(trifluoromethyl)nicotinonitrile], the IC50 was 704 nM in assay [1]; > 5000 nM in assay [2] (A549); 2800 nM in assay [3] (Homo sapiens, MIA PaCa-2, 72 h).
Take `C=CC(=O)N1CCN([C@@H]2CN(c3cc(N4CC[C@]5(C[C@H]4C)OC[C@H](CO)n4ncc(C)c45)nc(C(F)F)n3)[C@@H]2C)CC1` (single isomer, unassigned) [Compound 3-088-2]: the half-maximal inhibitory concentration (IC50) in assay [1] is 72 nM; in assay [2] (A549), > 5000 nM; in assay [3] (Homo sapiens, MIA PaCa-2, 72 h) it was 128 nM.
`C=CC(=O)N1CCN([C@@H]2CN(c3cc(N4CCC5(CC4)OCc4nccc(C)c45)nc(C(F)(F)F)n3)[C@@H]2C)CC1` [Compound 3-079, 1-(4-((2R,3R)-2-methyl-1-(6-(4-methyl-1′H,7H-spiro[furo[3,4-b]pyridine-5,4′-piperidin]-1′-yl)-2-(trifluoromethyl)-4-pyrimidinyl)-3-azetidinyl)-1-piperazinyl)-2-propen-1-one]: the concentration for half-maximal inhibition (IC50) was 81 nM in assay [1]; > 5000 nM in assay [2] (A549); 180 nM in assay [3] (Homo sapiens, MIA PaCa-2, 72 h).
On to `C=CC(=O)N1CCN(C2CN(c3cc(N4CCC5(CC4)OC(C)C=C5C)nc(C(F)(F)F)c3C#N)C2)CC1` (stereo not drawn) [Compound 3-053, 4-(3-(4-Acryloylpiperazin-1-yl)azetidin-1-yl)-6-(2,4-dimethyl-1-oxa-8-azaspiro[4.5]dec-3-en-8-yl)-2-(trifluoromethyl)nicotinonitrile], for which the concentration for half-maximal inhibition (IC50) in assay [1] was 191 nM; in assay [2] (A549), > 5000 nM; in assay [3] (Homo sapiens, MIA PaCa-2, 72 h) it was 755 nM.
Take `C=CC(=O)N1CCN(C2CN(c3cc(N4CCC5(CC4)OCc4cnn(C)c45)nc(C(F)(F)F)c3C#N)C2)CC1` [Compound 3-049, 4-(3-(4-acryloylpiperazin-1-yl)azetidin-1-yl)-6-(1-methyl-1,4-dihydrospiro[furo[3,4-c]pyrazole-6,4′-piperidin]-1′-yl)-2-(trifluoromethyl)nicotinonitrile]: the IC50 is 664 nM in assay [1]; > 5000 nM in assay [2] (A549); 979 nM in assay [3] (Homo sapiens, MIA PaCa-2, 72 h).
Consider `C=CC(=O)N1CCN([C@@H]2CN(c3cc(N4CCC5(CC4)OCCc4nccc(C)c45)nc(C(F)(F)F)n3)[C@@H]2C)CC1` [Compound 3-085, 1-(4-((2R,3R)-2-methyl-1-(6-(4′-methyl-7′,8′-dihydrospiro[piperidine-4,5′-pyrano[4,3-b]pyridin]-1-yl)-2-(trifluoromethyl)pyrimidin-4-yl)azetidin-3-yl)piperazin-1-yl)prop-2-en-1-one], for which the values for the 50% inhibitory concentration (IC50) in assay [2] and in assay [3] (72 h) were > 5000 nM and 180 nM, respectively.
On to `C=CC(=O)N1CCN([C@@H]2CN(c3cc(N4CCC5(CC4)OCC(CF)n4ncc(C)c45)nc(C(F)(F)F)n3)[C@@H]2C)CC1` (stereo partly drawn) [Compound 3-083, 1-(4-((2R,3R)-1-(6-(7′-(fluoromethyl)-3′-methyl-6′,7′-dihydrospiro[piperidine-4,4′-pyrazolo[5,1-c][1,4]oxazin]-1-yl)-2-(trifluoromethyl)pyrimidin-4-yl)-2-methylazetidin-3-yl)piperazin-1-yl)prop-2-en-1-one], for which the 50% inhibitory concentration (IC50) in assay [1] is 75 nM; in assay [2] (A549), > 5000 nM; in assay [3] (Homo sapiens, MIA PaCa-2, 72 h), 171 nM.
The corresponding values for `C=CC(=O)N1CCN([C@@H]2CN(c3cc(N4CCC5(CC4)OCC(COC)n4ncc(C)c45)nc(C(F)(F)F)n3)[C@@H]2C)CC1` (stereo partly drawn) [Compound 3-082, 1-(4-((2R,3R)-1-(6-(7′-(methoxymethyl)-3′-methyl-6′,7′-dihydrospiro[piperidine-4,4′-pyrazolo[5,1-c][1,4]oxazin]-1-yl)-2-(trifluoromethyl)pyrimidin-4-yl)-2-methylazetidin-3-yl)piperazin-1-yl)prop-2-en-1-one] are 69 nM, > 5000 nM and 145 nM.
On to `C=CC(=O)N1CCN([C@@H]2CN(c3cc(N4CC[C@]5(C[C@H]4C)OC[C@@H](CO)n4ncc(C)c45)nc(C(F)(F)F)n3)[C@@H]2C)CC1` (single isomer, unassigned) [Compound 3-087-1], for which the IC50 in assay [1] was 48 nM; in assay [2] (A549) it was > 5000 nM; in assay [3] (Homo sapiens, MIA PaCa-2, 72 h) it was 78 nM.
For `C=CC(=O)N1CCN([C@@H]2CN(c3cc(N4CC[C@]5(C[C@H]4C)OCCc4ncsc45)nc(C(F)(F)F)n3)[C@@H]2C)CC1` (single isomer, unassigned) [Compound 3-091-1], the IC50 in assay [1] was 54 nM; in assay [2] (A549), > 5000 nM; in assay [3] (Homo sapiens, MIA PaCa-2, 72 h), 331 nM.
`C=CC(=O)N1CCN(C2CN(c3cc(N4CCC5(CC4)COc4ccccc45)nc(C(F)(F)F)n3)C2)CC1` [Compound 3-018, 1-(4-(1-(6-(2H-spiro[benzofuran-3,4′-piperidin]-1′-yl)-2-(trifluoro-methyl)pyrimidin-4-yl)azetidin-3-yl)piperazin-1-yl)prop-2-en-1-one]: the half-inhibitory concentration (IC50) in assay [1] is 1980 nM.
The same measure, in the same setting: with `C=CC(=O)N1CCN(C2CN(c3cc(N4CCC5(C=CCOC5)CC4)nc(C(F)F)c3C)C2)CC1` [Compound 3-072, 1-(4-(1-(2-(difluoromethyl)-3-methyl-6-(2-oxa-9-azaspiro[5.5]undec-4-en-9-yl)pyridin-4-yl)azetidin-3-yl)piperazin-1-yl)prop-2-en-1-one] the figure was 4900 nM; with `C=CC(=O)N1CCN(C2CN(c3cc(N4CCC5(CC4)OC(=O)NC5(C)C)nc(C(F)(F)F)c3C#N)C2)CC1` [Compound 3-032, 4-(3-(4-acryloylpiperazin-1-yl)azetidin-1-yl)-6-(4,4-dimethyl-2-oxo-1-oxa-3,8-diazaspiro[4.5]decan-8-yl)-2-(trifluoromethyl)nicotinonitrile], 2750 nM; with `C=CC(=O)N1CCN(C2CN(c3cc(N4CCC5(CC4)c4ccccc4C(=O)N5C)nc(C(F)(F)F)n3)C2)CC1` [Compound 3-013], 5640 nM.
Regarding `C=CC(=O)N1CCN(C2CN(c3cc(N4CCC5(CC4)COC5)nc(C(F)(F)F)c3C#N)C2)CC1` [Compound 3-019, 4-(3-(4-acryloylpiperazin-1-yl)-azetidin-1-yl)-6-(2-oxa-7-azaspiro [3.5]nonan-7-yl)-2-(trifluorometh-yl)nicotinonitrile], the IC50 in assay [1] was 4400 nM. The IC50 values of the last two compounds are within 1.5-fold of each other.
